Test results from article PMC3845358 (Journal of immunology (Baltimore, Md. : 1950), 2013).
≈ marks a conversion by molar mass, not a printed value.

How the values were obtained:
[1] = test system: Human peripheral blood mononuclear (PBMC) cells; test: LPS-stimulated cytokine release from PBMC; assay type: cell-based; details: 16 h
[2] = Observation of treated animals across the inflammation models; assay type: in vivo, mouse; details: parenteral, oral, topical application
[3] = test system: bacterial growth; test: Kirby Bauer testing of bacterial growth; details: data not shown
[4] = target: T1, Fbxo3 (Homo sapiens, UniProt Q9UK99); test: Reversibility of Fbxo3 inhibition by ultrafiltration and Fbxl2 pull-down; details: 1 mg/ml, one or three rounds of ultrafiltration (3 kDa cutoff)
T1 sequence (Q9UK99 1-471): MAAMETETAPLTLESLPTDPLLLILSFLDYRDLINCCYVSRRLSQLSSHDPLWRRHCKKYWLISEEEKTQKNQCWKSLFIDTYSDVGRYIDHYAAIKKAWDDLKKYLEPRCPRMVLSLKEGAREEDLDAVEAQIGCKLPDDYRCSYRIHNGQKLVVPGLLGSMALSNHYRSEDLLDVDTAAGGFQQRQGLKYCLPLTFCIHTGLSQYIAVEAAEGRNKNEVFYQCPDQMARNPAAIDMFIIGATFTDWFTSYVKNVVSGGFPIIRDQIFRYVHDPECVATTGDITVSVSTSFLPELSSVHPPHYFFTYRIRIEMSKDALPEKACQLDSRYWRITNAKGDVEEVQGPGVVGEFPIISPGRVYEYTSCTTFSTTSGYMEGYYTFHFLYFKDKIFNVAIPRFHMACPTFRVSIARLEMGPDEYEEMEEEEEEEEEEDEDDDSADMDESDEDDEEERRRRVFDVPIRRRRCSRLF

[5] = test system: LPS-treated PBMC; test: Cytokine array of LPS-treated PBMC; assay type: cell-based, human; details: 10 µg/ml, LPS 2 µg/ml, 16 h
[6] = test system: carrageenan-treated C57BL6 mice; test: Carrageenan paw edema model; assay type: in vivo, mouse; details: 100 µg i.p. daily, 48 h, versus vehicle
[7] = test system: C57BL6 mice given TPA on ears; test: TPA-induced ear edema model; assay type: in vivo, mouse; details: topical 8, 40, 200 ug/ear, 18 h after TPA, versus vehicle
[8] = test system: TRAF 1–6 in MLE cells; test: TRAF protein half-life; details: different concentrations, 16 h
[9] = target: T2, COX-2 (Mus musculus, UniProt Q05769); test: COX-2 activity and COX-2 levels in MLE cells; assay type: cell-based, murine; details: 16 h
T2 sequence (Q05769 18-604): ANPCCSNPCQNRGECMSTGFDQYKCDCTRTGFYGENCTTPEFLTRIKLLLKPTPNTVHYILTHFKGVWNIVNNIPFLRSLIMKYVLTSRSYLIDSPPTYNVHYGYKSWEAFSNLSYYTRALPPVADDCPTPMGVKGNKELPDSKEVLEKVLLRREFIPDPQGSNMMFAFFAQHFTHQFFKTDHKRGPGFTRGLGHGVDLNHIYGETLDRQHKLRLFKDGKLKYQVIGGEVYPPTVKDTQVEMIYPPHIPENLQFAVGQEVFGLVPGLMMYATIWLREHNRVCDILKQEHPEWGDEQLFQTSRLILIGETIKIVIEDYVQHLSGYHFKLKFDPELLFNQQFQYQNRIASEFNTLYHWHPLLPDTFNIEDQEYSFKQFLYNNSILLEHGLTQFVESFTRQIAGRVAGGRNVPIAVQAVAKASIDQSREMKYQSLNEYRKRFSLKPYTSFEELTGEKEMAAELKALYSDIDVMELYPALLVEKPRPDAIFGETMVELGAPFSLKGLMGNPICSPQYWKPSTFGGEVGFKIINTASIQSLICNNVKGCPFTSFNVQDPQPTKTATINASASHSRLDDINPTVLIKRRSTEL

[10] = test system: C57BL6 mice fed dextran sulfate sodium (DSS); test: DSS-induced colitis model; assay type: in vivo, mouse; details: 100 µg i.p. daily
[11] = test system: LOX-1; test: Purified enzyme activity assay, LOX-1; details: 10 µM, purified protein
[12] = target: SCF^Fbxo3 (Homo sapiens, UniProt Q9UK99); test: In vitro ubiquitin conjugation assay of Fbxl2; assay type: biochemical
SCF^Fbxo3, sequence (Q13616 whole entry partner, one chain of several): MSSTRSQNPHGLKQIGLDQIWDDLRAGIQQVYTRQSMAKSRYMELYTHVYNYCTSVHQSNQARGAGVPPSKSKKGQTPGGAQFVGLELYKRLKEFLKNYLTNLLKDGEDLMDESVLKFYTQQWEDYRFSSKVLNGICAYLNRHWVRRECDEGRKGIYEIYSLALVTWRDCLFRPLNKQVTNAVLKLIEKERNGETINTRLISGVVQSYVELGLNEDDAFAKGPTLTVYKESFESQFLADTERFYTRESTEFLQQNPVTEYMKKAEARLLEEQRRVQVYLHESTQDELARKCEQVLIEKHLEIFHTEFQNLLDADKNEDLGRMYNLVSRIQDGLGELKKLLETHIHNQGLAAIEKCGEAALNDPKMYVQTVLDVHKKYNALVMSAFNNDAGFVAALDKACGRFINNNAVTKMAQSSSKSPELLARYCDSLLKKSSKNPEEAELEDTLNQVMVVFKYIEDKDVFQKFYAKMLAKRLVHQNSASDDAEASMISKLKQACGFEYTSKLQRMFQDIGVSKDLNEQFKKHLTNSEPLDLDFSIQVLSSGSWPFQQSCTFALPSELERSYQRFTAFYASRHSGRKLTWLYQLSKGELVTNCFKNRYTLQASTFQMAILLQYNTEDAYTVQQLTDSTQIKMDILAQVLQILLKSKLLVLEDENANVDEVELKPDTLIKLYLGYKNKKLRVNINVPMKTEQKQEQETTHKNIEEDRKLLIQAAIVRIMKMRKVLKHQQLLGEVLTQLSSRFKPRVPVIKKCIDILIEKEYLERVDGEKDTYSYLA
SCF^Fbxo3, sequence (P63208 whole entry partner, one chain of several): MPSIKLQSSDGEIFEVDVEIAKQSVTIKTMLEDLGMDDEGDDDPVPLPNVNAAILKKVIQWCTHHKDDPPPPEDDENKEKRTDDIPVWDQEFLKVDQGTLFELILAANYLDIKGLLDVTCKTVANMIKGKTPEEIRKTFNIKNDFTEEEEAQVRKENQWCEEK
SCF^Fbxo3, sequence (P62877 whole entry partner, one chain of several): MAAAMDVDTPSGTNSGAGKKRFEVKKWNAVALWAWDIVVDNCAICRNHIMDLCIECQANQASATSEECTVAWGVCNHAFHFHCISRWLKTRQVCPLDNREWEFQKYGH

[13] = test system: C57BL6 mice challenged with H1N1 (A/PR/8/34); test: H1N1 influenza pneumonia model; assay type: in vivo, mouse; details: 30 µg/ml in drinking water
[14] = target: T1, Fbxo3; test: Fbxo3/Fbxl2 protein interaction pull-down assay; assay type: binding; details: Fbxo3 beads from Hela cell lysates, 10^−11 to 10^−4 M tested
[15] = target: COX-1 (Homo sapiens, UniProt P23219); test: Purified enzyme activity assay, COX-1; details: 10 µM, purified protein
COX-1, sequence (P23219 24-599): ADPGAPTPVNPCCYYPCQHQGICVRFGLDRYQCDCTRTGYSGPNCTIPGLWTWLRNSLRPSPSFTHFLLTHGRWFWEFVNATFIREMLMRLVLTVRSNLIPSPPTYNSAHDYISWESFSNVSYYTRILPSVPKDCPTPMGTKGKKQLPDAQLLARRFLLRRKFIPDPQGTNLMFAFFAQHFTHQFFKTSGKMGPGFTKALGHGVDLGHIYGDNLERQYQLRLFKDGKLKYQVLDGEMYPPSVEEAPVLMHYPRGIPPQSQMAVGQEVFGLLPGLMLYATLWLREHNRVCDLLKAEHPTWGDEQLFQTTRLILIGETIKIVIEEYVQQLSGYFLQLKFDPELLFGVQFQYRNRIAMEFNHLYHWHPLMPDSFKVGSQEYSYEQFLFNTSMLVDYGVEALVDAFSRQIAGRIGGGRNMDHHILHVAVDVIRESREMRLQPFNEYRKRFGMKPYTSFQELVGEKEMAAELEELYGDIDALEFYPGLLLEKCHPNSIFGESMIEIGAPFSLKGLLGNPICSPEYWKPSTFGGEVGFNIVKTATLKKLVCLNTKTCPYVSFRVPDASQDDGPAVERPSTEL

[16] = target: T3, COX-2 (Homo sapiens, UniProt P35354); test: Purified enzyme activity assay, COX-2; details: 10 µM, purified protein
T3 sequence (P35354 18-604): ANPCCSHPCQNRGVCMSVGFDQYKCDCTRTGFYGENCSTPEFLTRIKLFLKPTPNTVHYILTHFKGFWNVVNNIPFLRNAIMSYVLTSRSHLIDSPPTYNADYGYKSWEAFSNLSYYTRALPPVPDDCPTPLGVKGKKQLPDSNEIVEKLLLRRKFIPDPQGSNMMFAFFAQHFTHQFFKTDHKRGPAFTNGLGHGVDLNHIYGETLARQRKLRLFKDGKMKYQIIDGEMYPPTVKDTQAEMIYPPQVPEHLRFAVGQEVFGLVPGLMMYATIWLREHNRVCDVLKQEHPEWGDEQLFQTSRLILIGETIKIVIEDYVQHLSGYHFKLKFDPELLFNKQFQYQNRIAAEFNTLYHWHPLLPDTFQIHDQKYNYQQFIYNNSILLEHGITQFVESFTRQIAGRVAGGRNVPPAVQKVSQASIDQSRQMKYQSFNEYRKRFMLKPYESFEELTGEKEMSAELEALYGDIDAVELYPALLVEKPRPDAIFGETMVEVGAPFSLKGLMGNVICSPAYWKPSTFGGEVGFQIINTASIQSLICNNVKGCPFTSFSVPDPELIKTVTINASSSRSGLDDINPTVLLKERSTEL

[17] = test system: Murine lung epithelial (MLE) cells; test: Immunoblotting of Fbxl2, TRAFs and Fbxl2 substrates in MLE cells

## c1ccc(CNCCNCc2ccccc2)cc1 [benzathine, reference compound]
[1]; LPS 2 µg/ml, ELISA
  IC50 for IL-1β: 25 µg/mL

## c1ccc(-c2ccc(CNCCNCc3ccc(-c4ccccn4)cc3)cc2)nc1 [BC-1215]
[2]
  overt signs of distress in treated animals: not observed to exhibit overt signs of distress
[3]
  inhibition of bacterial growth: modest inhibition of bacterial growth
[4]
  reversibility of Fbxo3 inhibition: reversible
[5]
  release of Th1 panel cytokines: remarkably suppressed the majority of the Th1 panel cytokines
[6]
  paw edema (volume): significantly reduce
  paw thickness: significantly reduce
[7]
  ear thickness: significantly reduced
  ear weight (punch biopsy): significantly reduced
[8]
  TRAF steady-state mRNA levels: without altering TRAF steady-state mRNA levels
[9]; 10 µg/ml, positive control DuP-697
  COX-2 activity in cells: did not alter COX-2 activity
[9]; different concentrations, immunoblotting
  immunoreactive COX-2 levels: did not alter immunoreactive COX-2 levels
[10]; 3.5% DSS five days, compared to control
  colon length: no significant decrease in colon length
[10]; immunoblotting
  TRAF protein levels in colon tissue: significant reduction of immunoreactive TRAF2 and TRAF4 content
[10]; versus vehicle
  IL1β level in colonic tissue: large reduction
  TNFα level in colonic tissue: large reduction
  colon histology (H&E and Alcian staining): significant restoration of colonic crypts with reappearance of goblet cells
[11]
  inhibition of LOX-1 enzymatic activity: does not cause significant inhibitory effects
[12]
  IC50: 100 nM
[13]
  lavage cell counts: remarkably decreased
  lavage protein concentration: remarkably decreased
[13]; day 5, FlexiVent
  lung compliance: increased compliance
  lung elastance: reduced elastance
[13]; gross images and H&E
  pulmonary edema, hemorrhage and alveolar inflammation: lessened severity
[13]; up to 9 d, versus diluent
  survival: significantly increased survival
[14]
  concentration of maximal inhibitory binding (Fbxl2 pull-down by Fbxo3 beads): 10^−7 M
[15]
  inhibition of COX-1 enzymatic activity: does not cause significant inhibitory effects
[16]
  inhibition of COX-2 enzymatic activity: does not cause significant inhibitory effects
[17]; MLE cells co-treated with TNFα 10 ng/ml, 6 h
  TNFα-induced TRAF2/TRAF3 up-regulation and p38, p-IKK activation: suppress such effects in a dose-dependent manner
[17]; MLE cells, 16 h, immunoblotting
  levels of Fbxl2 substrates cyclin D2, cyclin D3 and CCT: reduced
[17]; cells, range of concentrations, compared to benzathine control
  immunoreactive Fbxl2 and TRAF protein levels: increased immunoreactive Fbxl2 levels and reduced TRAF proteins
[1]; Homo sapiens, read-out: IC50 for IL-1β
  IC50: 0.9 µg/mL (≈ 2.28 µM)
